In the oligonucleotide strings, read from the 5' end, every base follows the letter of its sugar. An asterisk marks phosphorothioate; unmarked linkages are phosphodiester. Other units and linkages are bracketed, terminal groups are in braces. A string of capitals states the bases alone. e = 2'-O-(2-methoxyethyl) (MOE); [5mC] = 5-methylcytosine; d = 2'-deoxy (DNA)
Columns and labels:
[1] = test system: apolipoprotein B protein; experiment: Apolipoprotein B protein secreted from primary human hepatocytes, ELISA; assay type: cell-based; settings: 300 nM
[2] = test system: apolipoprotein B mRNA; experiment: LDLr(-/-) mice dose response (Example 44): apolipoprotein B mRNA; assay type: in vivo, mouse; settings: six weeks
Protocol: (§1) LDLr(−/−) mice, purchased from Taconic (Germantown, N.Y.) were used to evaluate antisense oligonucleotides for their potential to lower apolipoprotein B mRNA or protein levels, as well as phenotypic endpoints associated with apolipoprotein B. LDLr(−/−) mice were separated into groups of males and females. LDLr(−/−) mice were dosed intraperitoneally twice a week for six weeks with either 10, 25, or 50 mg/kg of ISIS 147764 (SEQ ID NO: 109) or ISIS 270906 (SEQ ID NO: 856) which is a 4 base mismatch of ISIS 147764, or with saline, or 20 mg/kg of Atorvastatin. At study termination animals were sacrificed and evaluated for several phenotypic markers.

[3] = LDLr(-/-) mice dose response (Example 44): liver enzyme, cholesterol and triglyceride levels; assay type: in vivo, mouse; settings: six weeks
Protocol: as §1

[4] = test system: apolipoprotein B mRNA; experiment: High fat fed mice, time-dependent effects and after cessation of dosing (Example 51): apolipoprotein B mRNA in liver; assay type: in vivo, mouse; settings: for % Inhibition apolipoprotein B mRNA: liver
Protocol: In a further embodiment of the invention, the inhibition of apolipoprotein B mRNA in mice was compared to liver oligonucleotide concentration, total cholesterol, LDL-cholesterol and HDL-cholesterol. Male C57Bl/6 mice receiving a high fat diet (60% fat) were evaluated over the course of 6 weeks for the effects of treatment with twice weekly intraperitoneal injections of 50 mg/kg ISIS 147764 (SEQ ID NO: 109) or 50 mg/kg of the control oligonucleotide ISIS 141923 (SEQ ID NO: 858). Control animals received saline treatment. Animals were sacrificed after 2 days, 1, 2, 4 and 6 weeks of treatment. Each treatment group at each time point consisted of 8 mice.
Target expression in liver was measured by real-time PCR as described by other examples herein and is expressed as percent inhibition relative to saline treated mice. Total, LDL- and HDL-cholesterol levels were measured by routine clinical analysis using an Olympus Clinical Analyzer (Olympus America Inc., Melville, N.Y.) and are presented in mg/dL. Results from saline-treated animals are shown for comparison. Intact oligonucleotide in liver tissue was measured by capillary gel electrophoresis and is presented as micrograms of oligonucleotide per gram of tissue.
The oligonucleotide treatments described in this example were duplicated to investigate the extent to which effects of ISIS 147764 persist following cessation of treatment. Mice were treated as described, and sacrificed 1, 2, 4, 6 and 8 weeks following the cessation of oligonucleotide treatment.

[5] = test system: human apolipoprotein B mRNA; experiment: Inhibition of apolipoprotein B mRNA by dsRNAs in HepG2 cells; assay type: cell-based; settings: 150 nM with 3.75 μg/mL LIPOFECTIN
Protocol: In accordance with the present invention, a series of nucleic acid duplexes comprising the antisense compounds of the present invention and their complements were designed to target apolipoprotein B and are shown in Table 42. All compounds in Table 42 are oligoribonucleotides 20 nucleotides in length with phosphodiester internucleoside linkages (backbones) throughout the compound. The compounds were prepared with blunt ends. […] These sequences are shown to contain uracil (U) but one of skill in the art will appreciate that uracil (U) is generally replaced by thymine (T) in DNA sequences. “Targer site” indicates the first (5′-most) nucleotide number on the particular target sequence to which the compound binds. A subset of the compounds in Table 42 are the RNA equivalents of DNA antisense oligonucleotides described herein, and, where applicable, this is noted by the ISIS # of the DNA oligonucleotide in the column “RNA equivalent of ISIS #”.
The dsRNA compounds in Table 42 were tested for their effects on human apolipoprotein mRNA in HepG2 cells. HepG2 cells were treated with 100 nM of dsRNA compounds mixed with 5 μg/mL LIPOFECTIN (Invitrogen Corporation, Carlsbad, Calif.) for a period of 16 hours. In the same experiment, HepG2 cells were also treated with 150 nM of subset of the antisense oligonucleotides described herein mixed with 3.75 μg/mL LIPOFECTIN; these compounds are listed in Table 43. Control oligonucleotides included ISIS 18078 ([…], SEQ ID NO: 888). ISIS 18078 is a chimeric oligonucleotide (“gapmer”) 20 nucleotides in length, composed of a central “gap” region consisting of 9 2′-deoxynucleotides, which is flanked on the 5′ and 3′ ends by a five-nucleotide “wing” and a six-nucleotide “wing”, respectively. The wings are composed of 2′-methoxyethyl (2′-MOE)nucleotides. The internucleoside (backbone) linkages are phosphorothioate (P═S) throughout the oligonucleotide. All cytidines are 5-methylcytidines. The duplex of ISIS 263188 ([…], SEQ ID NO: 889) and its complement was also used as a control. ISIS 263188 is an oligoribonucleotide 21 nucleotides in length with the 2 nucleotides on the 3′ end being oligodeoxyribonucleotides (TT) and with phosphodiester internucleoside linkages (backbones) throughout the compound.
Cells were treated for 4 hours, after which human apolipoprotein B mRNA expression was measured as described by examples herein. Results were normalized to untreated control cells, which were not treated with LIPOFECTIN or oligonucleotide.

[6] = test system: human apolipoprotein B protein; experiment: Transgenic mice (Example 47): serum human apolipoprotein B protein by ELISA; assay type: in vivo, human transgene in mouse; settings: 25 mg/kg, relative to saline-treated animals
Protocol: Serum samples were also collected at 2, 4, 6 and 8 weeks and were evaluated for human apolipoprotein B expression by using a human apolipoprotein B specific ELISA kit (ALerCHEK Inc., Portland, Me.). […] Treatment with ISIS 301012 reduced serum human apolipoprotein B protein by 70, 87, 81 and 41% at 2, 4, 6 and 8 weeks, respectively, relative to saline-treated control animals. Serum from transgenic mice was also subjected to immunoblot analysis using both human and mouse specific apolipoprotein B antibodies (US Biologicals, Swampscott, Mass. and Santa Cruz Biotechnology, Inc., Santa Cruz, Calif., respectively).

[7] = female LDLr(-/-) mice, 10 mg/kg i.p. twice a week
[8] = female LDLr(-/-) mice, 25 mg/kg i.p. twice a week
[9] = female LDLr(-/-) mice, 50 mg/kg i.p. twice a week
[10] = male LDLr(-/-) mice, 10 mg/kg i.p. twice a week
[11] = male LDLr(-/-) mice, 25 mg/kg i.p. twice a week
[12] = male LDLr(-/-) mice, 50 mg/kg i.p. twice a week
[13] = male and female LDLr(-/-) mice, 10, 25 or 50 mg/kg i.p. twice a week

## 113529 (antisense e[5mC]*eT*e[5mC]*eT*eT*dA*d[5mC]*dT*dG*dT*dG*d[5mC]*dT*dG*dT*eG*eG*eA*e[5mC]*eA) [compound 113529]
[1]; 24 hours
  % Change in apolipoprotein B protein secretion: −2%
[1]; 48 hours
  % Change in apolipoprotein B protein secretion: −5%

## 147764 (eG*eT*e[5mC]*e[5mC]*e[5mC]*dT*dG*dA*dA*dG*dA*dT*dG*dT*d[5mC]*eA*eA*eT*eG*e[5mC]) [compound 147764]
[2]; [7]
  apolipoprotein B mRNA % control: 64.2 % control
[2]; [8]
  apolipoprotein B mRNA % control: 41.3 % control
[2]; [9]
  apolipoprotein B mRNA % control: 18.5 % control
[2]; [10]
  apolipoprotein B mRNA % control: 61.7 % control
[2]; [11]
  apolipoprotein B mRNA % control: 30.7 % control
[2]; [12]
  apolipoprotein B mRNA % control: 16.6 % control
[3]; [7]
  Lipoproteins CHOL: 269.6 mg/dL
  Lipoproteins HDL: 121.0 mg/dL
  Lipoproteins LDL: 127.8 mg/dL
  Lipoproteins TRIG: 140.8 mg/dL
  Liver Enzymes ALT: 27.2 IU/L
  Liver Enzymes AST: 82.0 IU/L
[3]; [8]
  Lipoproteins CHOL: 175.8 mg/dL
  Lipoproteins HDL: 99.5 mg/dL
  Lipoproteins LDL: 68.9 mg/dL
  Lipoproteins TRIG: 100.4 mg/dL
  Liver Enzymes ALT: 32.2 IU/L
  Liver Enzymes AST: 61.4 IU/L
[3]; [9]
  Lipoproteins CHOL: 138.2 mg/dL
  Lipoproteins HDL: 92.2 mg/dL
  Lipoproteins LDL: 45.9 mg/dL
  Lipoproteins TRIG: 98.0 mg/dL
  Liver Enzymes ALT: 120.4 IU/L
  Liver Enzymes AST: 134.6 IU/L
[3]; [10]
  Lipoproteins CHOL: 314.2 mg/dL
  Lipoproteins HDL: 150.0 mg/dL
  Lipoproteins LDL: 134.7 mg/dL
  Lipoproteins TRIG: 198.6 mg/dL
  Liver Enzymes ALT: 29.8 IU/L
  Liver Enzymes AST: 57.6 IU/L
[3]; [11]
  Lipoproteins CHOL: 185.0 mg/dL
  Lipoproteins HDL: 110.6 mg/dL
  Lipoproteins LDL: 66.2 mg/dL
  Lipoproteins TRIG: 104.2 mg/dL
  Liver Enzymes ALT: 78.8 IU/L
  Liver Enzymes AST: 112.6 IU/L
[3]; [12]
  Lipoproteins CHOL: 165.6 mg/dL
  Lipoproteins HDL: 107.8 mg/dL
  Lipoproteins LDL: 51.2 mg/dL
  Lipoproteins TRIG: 113.4 mg/dL
  Liver Enzymes ALT: 156.8 IU/L
  Liver Enzymes AST: 163.6 IU/L
[4]; high fat fed male C57Bl/6 mice, 50 mg/kg i.p. twice weekly, treatment period 1 week
  % Inhibition apolipoprotein B mRNA: 57%
[4]; high fat fed male C57Bl/6 mice, 50 mg/kg i.p. twice weekly, treatment period 2 weeks
  % Inhibition apolipoprotein B mRNA: 73%
[4]; high fat fed male C57Bl/6 mice, 50 mg/kg i.p. twice weekly, treatment period 4 weeks
  % Inhibition apolipoprotein B mRNA: 82%
[4]; high fat fed male C57Bl/6 mice, 50 mg/kg i.p. twice weekly, treatment period 6 weeks
  % Inhibition apolipoprotein B mRNA: 88%
[4]; high fat fed male C57Bl/6 mice, 50 mg/kg i.p. twice weekly, treatment period 2 days
  % Inhibition apolipoprotein B mRNA: 50%
[4]; high fat fed mice, 50 mg/kg i.p. twice weekly, 1 week after cessation of dosing
  % Inhibition apolipoprotein B mRNA: 82%
[4]; high fat fed mice, 50 mg/kg i.p. twice weekly, 2 weeks after cessation of dosing
  % Inhibition apolipoprotein B mRNA: 78%
[4]; high fat fed mice, 50 mg/kg i.p. twice weekly, 4 weeks after cessation of dosing
  % Inhibition apolipoprotein B mRNA: 49%
[4]; high fat fed mice, 50 mg/kg i.p. twice weekly, 6 weeks after cessation of dosing
  % Inhibition apolipoprotein B mRNA: 37%
[4]; high fat fed mice, 50 mg/kg i.p. twice weekly, 8 weeks after cessation of dosing
  % Inhibition apolipoprotein B mRNA: 19%

## 281625 (antisense eA*eG*eG*eT*eT*dA*d[5mC]*d[5mC]*dA*dG*d[5mC]*d[5mC]*dA*d[5mC]*dA*eT*eG*e[5mC]*eA*eG) [compound 281625]
[5]
  % Inhibition of apolipoprotein B mRNA: 79%

## 301012 (eG*e[5mC]*e[5mC]*eT*e[5mC]*dA*dG*dT*d[5mC]*dT*dG*d[5mC]*dT*dT*d[5mC]*eG*e[5mC]*eA*e[5mC]*e[5mC]) [compound 301012]
[5]
  % Inhibition of apolipoprotein B mRNA: 77%
[1]; 24 hours
  % Change in apolipoprotein B protein secretion: −41%
[1]; 48 hours
  % Change in apolipoprotein B protein secretion: −48%

## 301027 (eG*e[5mC]*eT*e[5mC]*eA*d[5mC]*dT*dG*dT*dA*dT*dG*dG*dT*dT*eT*eT*eA*eT*e[5mC]; antisense) [compound 301027]
[5]
  % Inhibition of apolipoprotein B mRNA: 79%

## GTCCCTGAAGATGTCAATGC (2'-MOE gapmer, further chemistry not given here) [ISIS 147764]
[2]; [13]
  mRNA levels: able to lower cholesterol, triglycerides, and mRNA levels in a dose-dependent manner
[3]; [13]
  cholesterol, triglycerides: able to lower cholesterol, triglycerides, and mRNA levels in a dose-dependent manner
[4]; high fat fed C57Bl/6 mice, 50 mg/kg i.p. twice weekly
  time of treatment within which inhibition of apolipoprotein B mRNA occurred: ≤ 2 days
[4]; high fat fed C57Bl/6 mice, after 6 weeks of 50 mg/kg twice weekly
  persistence of effects (mRNA inhibition, cholesterol lowering) after termination of treatment: up to 8 weeks

## ISIS 281625: SEQ ID NO: 224, 2′-MOE gapmer targeted to human apolipoprotein B (antisense eA*eG*eG*eT*eT*dA*d[5mC]*d[5mC]*dA*dG*d[5mC]*d[5mC]*dA*d[5mC]*dA*eT*eG*e[5mC]*eA*eG)
[6]; 2 weeks
  reduction of serum human apolipoprotein B protein (ELISA): 31%
[6]; 4 weeks
  reduction of serum human apolipoprotein B protein (ELISA): 26%
[6]; 6 weeks
  reduction of serum human apolipoprotein B protein (ELISA): 11%
[6]; 8 weeks
  reduction of serum human apolipoprotein B protein (ELISA): 26%

## ISIS 301012: SEQ ID NO: 247, antisense oligonucleotide targeted to human apolipoprotein B (antisense GCCTCAGTCTGCTTCGCACC; chemistry not given here)
[6]; 2 weeks
  reduction of serum human apolipoprotein B protein (ELISA): 70%
[6]; 4 weeks
  reduction of serum human apolipoprotein B protein (ELISA): 87%
[6]; 6 weeks
  reduction of serum human apolipoprotein B protein (ELISA): 81%
[6]; 8 weeks
  reduction of serum human apolipoprotein B protein (ELISA): 41%
